In US10160747B2, “Compounds and methods for kinase modulation, and indications therefor” (Plexxikon Inc., priority 2016, dated 2018) one finds IC50 data, which are given here for 26 compounds.

The IC50 is the concentration that gives 50% inhibition.

For assay [1], the system named is MOLM-14 F691L (endogenous FLT3 ITD and transfected FLT3 F691L). The assay can be described thus: MOLM-14 F691L cell proliferation assay (CellTiter-Glo). The assay is classed as cell-based. Conditions: Homo sapiens, MOLM-14, 72 h; 3 d growth, GMean. The method, boiled down:
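Three-day proliferation at 37 °C/5% CO2 of FLT3-ITD MOLM-14 lines with D835Y or F691L mutation, seeded 1×10^4 per well. Compounds at eight points, top 1 μM final, 0.2% DMSO. ATP luminescence (CellTiter-Glo) gives IC50.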
In general terms: Cellular ATP, detected with luciferase, serves as a proxy for viable cell number.

The target of another assay is T1, c-KIT (Homo sapiens, UniProt P10721).
T1 construct: purchased Millipore 14-559K
T1 sequence (P10721 26-976): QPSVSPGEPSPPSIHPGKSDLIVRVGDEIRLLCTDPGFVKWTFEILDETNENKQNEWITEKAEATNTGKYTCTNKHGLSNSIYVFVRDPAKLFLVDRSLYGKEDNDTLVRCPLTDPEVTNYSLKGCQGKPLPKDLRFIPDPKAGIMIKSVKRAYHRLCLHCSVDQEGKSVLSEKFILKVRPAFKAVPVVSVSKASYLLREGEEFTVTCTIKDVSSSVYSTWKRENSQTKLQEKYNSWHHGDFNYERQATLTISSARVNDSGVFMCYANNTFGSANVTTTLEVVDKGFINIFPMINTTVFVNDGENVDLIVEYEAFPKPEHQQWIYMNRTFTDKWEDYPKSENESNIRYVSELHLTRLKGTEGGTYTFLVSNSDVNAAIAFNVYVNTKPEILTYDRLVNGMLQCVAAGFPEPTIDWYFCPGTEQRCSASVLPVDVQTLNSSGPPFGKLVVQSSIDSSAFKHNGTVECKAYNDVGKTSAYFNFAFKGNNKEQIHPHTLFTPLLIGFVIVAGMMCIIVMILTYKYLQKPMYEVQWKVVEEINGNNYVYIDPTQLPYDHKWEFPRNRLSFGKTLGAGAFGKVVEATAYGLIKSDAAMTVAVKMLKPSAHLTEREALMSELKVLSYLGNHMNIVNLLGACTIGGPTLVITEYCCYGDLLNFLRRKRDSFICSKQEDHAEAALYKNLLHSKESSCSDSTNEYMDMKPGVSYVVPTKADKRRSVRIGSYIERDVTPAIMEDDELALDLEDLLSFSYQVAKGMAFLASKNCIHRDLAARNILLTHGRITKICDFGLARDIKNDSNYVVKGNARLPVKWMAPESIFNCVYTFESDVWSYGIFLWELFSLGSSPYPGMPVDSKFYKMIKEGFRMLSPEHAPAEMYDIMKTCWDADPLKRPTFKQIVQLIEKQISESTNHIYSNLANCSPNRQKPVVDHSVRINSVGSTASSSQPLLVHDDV
Put plainly: c-KIT recombinant enzyme kinase assay (AlphaScreen). The class given is biochemical. Conditions: 100 ATP, 8 pt. The method, boiled down:
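Recombinant enzyme phosphorylated biotinylated poly(Glu4-Tyr) peptide (30 nM final) with ATP at 10 μM for FLT3-ITD and FLT3-D835Y or 100 μM for c-KIT. Phosphopeptide was detected by AlphaScreen with streptavidin donor and anti-phosphotyrosine (PY20) acceptor beads (10 μg/mL), read at 580 nm, for IC50 determination.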
Background: Alpha assays give light when donor and acceptor beads are brought close together.

Take `Cc1ncc(NC(=O)Cc2ccc(-c3cnc4c(c3)C3(CC3)C(=O)N4)cc2F)cc1C(F)(F)F` [Compound P-0057, 2-[2-fluoro-4-(2-oxospiro[1H-pyrrolo[2,3-b]pyridine-3,1′-cyclopropane]-5-yl)phenyl]-N-[6-methyl-5-(trifluoromethyl)-3-pyridyl]acetamide]: the IC50 (in assay [1]; on c-KIT) was 0.0001 to 10 µM in each case.
Consider `CCC(=O)c1c[nH]c2ncc(-c3ccc(CC(=O)Nc4cncc(C(F)(F)F)c4)c(F)c3)cc12` [Compound P-0068, 2-[2-fluoro-4-(3-propanoyl-1H-pyrrolo[2,3-b]pyridin-5-yl)phenyl]-N-[5-(trifluoromethyl)-3-pyridyl]acetamide], for which the half-maximal inhibitory concentration (IC50) (in assay [1]; at c-KIT) was 0.0001 to 10 µM throughout.
For the compound `O=C(Cc1ccc(-c2cnc3[nH]cc(F)c3c2)cc1F)Nc1cc(Cl)c(C2CC2)cn1` [Compound P-0044, N-(4-chloro-5-cyclopropyl-2-pyridyl)-2-[2-fluoro-4-(3-fluoro-1H-pyrrolo[2,3-b]pyridin-5-yl)phenyl]acetamide], the IC50 (in assay [1]; at c-KIT) was 0.0001 to 10 µM each time.
Take `Cc1ncc(NC(=O)Cc2ccc(-c3cnc4[nH]cc(Cl)c4n3)cc2)cc1C(F)(F)F` [Compound P-0079, 2-(4-(7-chloro-5H-pyrrolo[2,3-b]pyrazin-2-yl)phenyl)-N-(6-methyl-5-(trifluoromethyl)pyridin-3-yl)acetamide]: the IC50 (in assay [1]; at c-KIT) was 0.0001 to 10 µM in each case.
Consider `O=C(Cc1ccc(-c2cnc3[nH]cc(Cl)c3n2)cc1F)Nc1cnc(Cl)c(C(F)(F)F)c1` [Compound P-0060, 2-[4-(7-chloro-5H-pyrrolo[2,3-b]pyrazin-2-yl)-2-fluoro-phenyl]-N-[6-chloro-5-(trifluoromethyl)-3-pyridyl]acetamide], for which the IC50 (in assay [1]; on c-KIT) was 0.0001 to 10 µM in each case.
In the case of `O=C(Cc1ccc(-c2cnc3[nH]cc(C(=O)C4CC4)c3c2)cc1F)Nc1ccnc(C(F)(F)F)c1` [Compound P-0032, 2-[4-[3-(cyclopropanecarbonyl)-1H-pyrrolo[2,3-b]pyridin-5-yl]-2-fluoro-phenyl]-N-[2-(trifluoromethyl)-4-pyridyl]acetamide], the half-maximal inhibitory concentration (IC50) (in assay [1]; on c-KIT) was 0.0001 to 10 µM each time.
Regarding `O=C(Cc1ccc(-c2cnc(Nc3cnn4ccccc34)nc2)c(F)c1)Nc1cncc(C(F)(F)F)c1` [Compound P-0071, 2-[3-fluoro-4-[2-(pyrazolo[1,5-a]pyridin-3-ylamino)pyrimidin-5-yl]phenyl]-N-[5-(trifluoromethyl)-3-pyridyl]acetamide], the IC50 (in assay [1]; on c-KIT) was 0.0001 to 10 µM throughout.
With `O=C(Cc1ccc(-c2cnc(Nc3cnn4ccccc34)nc2)cc1F)Nc1cncc(C(F)(F)F)c1` [Compound P-0058, 2-[2-fluoro-4-[2-(pyrazolo[1,5-a]pyridin-3-ylamino)pyrimidin-5-yl]phenyl]-N-[5-(trifluoromethyl)-3-pyridyl]acetamide], the 50% inhibitory concentration (IC50) (in assay [1]; on c-KIT) was 0.0001 to 10 µM throughout.
For the compound `CC(=O)c1c[nH]c2ncc(-c3ccc(CC(=O)Nc4ccnc(C(F)(F)F)c4)c(F)c3)cc12` [Compound P-0031, 2-(4-(3-acetyl-1H-pyrrolo[2,3-b]pyridin-5-yl)-2-fluorophenyl)-N-(2-(trifluoromethyl)pyridin-4-yl)acetamide], at c-KIT, the IC50 is 0.0001 to 10 µM.
Consider `COc1ncc(NC(=O)Cc2ccc(-c3cnc4[nH]cc(Cl)c4n3)cc2F)cc1C(F)(F)F` [Compound P-0047, 2-[4-(7-chloro-5H-pyrrolo[2,3-b]pyrazin-2-yl)-2-fluoro-phenyl]-N-[6-methoxy-5-(trifluoromethyl)-3-pyridyl]acetamide], for which the half-maximal inhibitory concentration (IC50) (in assay [1]; on c-KIT) was 0.0001 to 10 µM throughout.
With `O=C(Cc1ccc(-c2cnc(Nc3cnn4ccccc34)nc2)cc1)Nc1cncc(C(F)(F)F)c1` [Compound P-0074, 2-[4-[2-(pyrazolo[1,5-a]pyridin-3-ylamino)pyrimidin-5-yl]phenyl]-N-[5-(trifluoromethyl)-3-pyridyl]acetamide], the half-inhibitory concentration (IC50) in assay [1] fell in the range of 0.0001 to 10 µM.
In the case of `CC(=O)c1c[nH]c2ncc(-c3ccc(CC(=O)Nc4cncc(C(F)(F)F)c4)c(F)c3)cc12` [Compound P-0055, 2-[4-(3-acetyl-1H-pyrrolo[2,3-b]pyridin-5-yl)-2-fluoro-phenyl]-N-[5-(trifluoromethyl)-3-pyridyl]acetamide], the IC50 (in assay [1]; on c-KIT) was 0.0001 to 10 µM in each case.
For the compound `COc1ncc(NC(=O)Cc2cc(F)c(-c3cnc4[nH]cc(F)c4c3)cc2F)cc1C(F)(F)F` [Compound P-0051, 2-[2,5-difluoro-4-(3-fluoro-1H-pyrrolo[2,3-b]pyridin-5-yl)phenyl]-N-[6-methoxy-5-(trifluoromethyl)-3-pyridyl]acetamide], the IC50 on c-KIT fell in the range of 0.0001 to 10 µM.
In the case of `COc1ncc(NC(=O)Cc2ccc(-c3cnc(Nc4cn[nH]c4)nc3)cc2)cc1C(F)(F)F` [Compound P-0025, N-[6-methoxy-5-(trifluoromethyl)-3-pyridyl]-2-[4-[2-(1H-pyrazol-4-ylamino)pyrimidin-5-yl]phenyl]acetamide], the IC50 (in assay [1]; on c-KIT) was 0.0001 to 10 µM each time.
For `Cn1cc(Nc2ncc(-c3ccc(CC(=O)Nc4ccnc(C(F)(F)F)c4)c(F)c3)cn2)cn1` [Compound P-0083, 2-[2-fluoro-4-[2-[(1-methylpyrazol-4-yl)amino]pyrimidin-5-yl]phenyl]-N-[2-(trifluoromethyl)-4-pyridyl]acetamide], the half-maximal inhibitory concentration (IC50) (in assay [1]; on c-KIT) was 0.0001 to 10 µM each time.
Turning to `O=C(Cc1ccc(-c2cnc(Nc3cnn(C(F)F)c3)nc2)c(F)c1)Nc1cc(C(F)(F)F)ccn1` [Compound P-0024, 2-[4-[2-[[1-(difluoromethyl)pyrazol-4-yl]amino]pyrimidin-5-yl]-3-fluoro-phenyl]-N-[4-(trifluoromethyl)-2-pyridyl]acetamide], the IC50 (in assay [1]; on c-KIT) was 0.0001 to 10 µM in each case.
Take `O=C(Cc1ccc(-c2cnc3c(c2)C2(CC2)C(=O)N3)cc1F)Nc1cncc(C(F)(F)F)c1` [Compound P-0064, 2-(2-fluoro-4-(2′-oxo-1′,2′-dihydrospiro[cyclopropane-1,3′-pyrrolo[2,3-b]pyridin]-5′-yl)phenyl)-N-(5-(trifluoromethyl)pyridin-3-yl)acetamide]: at c-KIT, the IC50 is 0.0001 to 10 µM.
For the compound `COc1ncc(NC(=O)Cc2ccc(-c3cnc4[nH]cc(C(=O)C5CC5)c4c3)cc2F)cc1C(F)(F)F` [Compound P-0036, 2-[4-[3-(cyclopropanecarbonyl)-1H-pyrrolo[2,3-b]pyridin-5-yl]-2-fluoro-phenyl]-N-[6-methoxy-5-(trifluoromethyl)-3-pyridyl]acetamide], the IC50 on c-KIT is 0.0001 to 10 µM.
As to `Cn1cnc(Nc2ncc(-c3ccc(CC(=O)Nc4cc(C(C)(F)F)ccn4)cc3F)cn2)c1` [Compound P-0171, N-[4-(1,1-difluoroethyl)-2-pyridyl]-2-[3-fluoro-4-[2-[(1-methylimidazol-4-yl)amino]pyrimidin-5-yl]phenyl]acetamide], the IC50 at c-KIT was 0.0001 to 10 µM.
`COc1ncc(NC(=O)Cc2ccc(-c3cnc4[nH]c(Cl)cc4c3)cc2F)cc1C(F)(F)F` [Compound P-0038, 2-[4-(2-chloro-1H-pyrrolo[2,3-b]pyridin-5-yl)-2-fluoro-phenyl]-N-[6-methoxy-5-(trifluoromethyl)-3-pyridyl]acetamide] had an IC50 in assay [1] of 0.0001 to 10 µM.
For `Cc1ncc(NC(=O)Cc2ccc(-c3cnc4[nH]c(Cl)cc4c3)cc2F)cc1C(F)(F)F` [Compound P-0067, 2-[4-(2-chloro-1H-pyrrolo[2,3-b]pyridin-5-yl)-2-fluoro-phenyl]-N-[6-methyl-5-(trifluoromethyl)-3-pyridyl]acetamide], the IC50 (in assay [1]; at c-KIT) was 0.0001 to 10 µM each time.
As to `Cc1ncc(NC(=O)Cc2ccc(-c3cnc4[nH]cc(Cl)c4n3)cc2F)cc1C(F)(F)F` [Compound P-0059, 2-[4-(7-chloro-5H-pyrrolo[2,3-b]pyrazin-2-yl)-2-fluoro-phenyl]-N-[6-methyl-5-(trifluoromethyl)-3-pyridyl]acetamide], the IC50 (in assay [1]; at c-KIT) was 0.0001 to 10 µM each time.
Take `O=C(Cc1ccc(-c2cnc3[nH]c(Cl)cc3c2)cc1F)Nc1ccnc(C(F)(F)F)c1` [Compound P-0030, 2-[4-(2-chloro-1H-pyrrolo[2,3-b]pyridin-5-yl)-2-fluoro-phenyl]-N-[2-(trifluoromethyl)-4-pyridyl]acetamide]: the IC50 (in assay [1]; at c-KIT) was 0.0001 to 10 µM in each case.
With `COc1nn(C[C@H](C)O)cc1Nc1ncc(-c2ccc(CC(=O)Nc3cncc(C(F)(F)F)c3)c(F)c2)cn1` [Compound P-0050, 2-[2-fluoro-4-[2-[[1-[(2S)-2-hydroxypropyl]-3-methoxy-pyrazol-4-yl]amino]pyrimidin-5-yl]phenyl]-N-[5-(trifluoromethyl)-3-pyridyl]acetamide], the IC50 (in assay [1]; on c-KIT) was 0.0001 to 10 µM throughout.
In the case of `COc1ncc(NC(=O)Cc2ccc(-c3cnc4[nH]cc(F)c4c3)c(F)c2)cc1C(F)(F)F` [Compound P-0048, 2-[3-fluoro-4-(3-fluoro-1H-pyrrolo[2,3-b]pyridin-5-yl)phenyl]-N-[6-methoxy-5-(trifluoromethyl)-3-pyridyl]acetamide], the IC50 on c-KIT was in the range of 0.0001 to 10 µM.
As to `O=C(Cc1ccc(-c2cnc3[nH]cc(F)c3c2)cc1F)Nc1ccnc(C(F)(F)F)c1` [Compound P-0029, 2-[2-fluoro-4-(3-fluoro-1H-pyrrolo[2,3-b]pyridin-5-yl)phenyl]-N-[2-(trifluoromethyl)-4-pyridyl]acetamide], the IC50 on c-KIT fell in the range of 0.0001 to 10 µM.
